Consider 77 compounds from article PMC12040169 (PLOS Biology, 2025).

This data set is described as follows: in vitro. The settings on record: human, hela cells, % viability.
Take `CCOC(=O)N1CCC(NS(=O)(=O)c2ccc(Cl)c(Cl)c2Cl)CC1` [CBK045471]: the viability at 28.5 h, 10 µM was 96.4%.
Then `CCCCCC(=O)Nc1ccc(S(=O)(=O)Nc2nnc(CC)s2)cc1` [CBK045478], with 89%; and `Cc1ccc(S(=O)(=O)Nc2nnc(C)s2)cc1` [CBK045486], with 92.5%; and `O=S(=O)(Nc1nncs1)c1ccccc1` [CBK045489], with 86.7%.
Then `CC(=O)Nc1ccc(S(=O)(=O)Nc2nnc(C(C)(C)C)s2)cc1` [CBK045499], with 100%; and `CC(C)(C)c1nnc(NS(=O)(=O)c2ccc([N+](=O)[O-])cc2)s1` [CBK045500], with 93.3%; and `CC(=O)Nc1ccc(S(=O)(=O)Nc2nnc(Cc3ccc(Cl)cc3)s2)cc1` [CBK045515], with 97.9%.
As for `Cc1cc(C)c(S(=O)(=O)Nc2nnc(C(C)C)s2)c(C)c1` [CBK045516], the figure is 102%; as for `COc1ccc(S(=O)(=O)Nc2nnc(C(C)C)s2)cc1` [CBK045525], 91.3%.
For `COCc1nnc(NS(=O)(=O)c2ccc(Br)cc2)s1` [CBK045526], the viability at 28.5 h, 10 µM is 115%.
As for `Cc1ccc(S(=O)(=O)Nc2nnc(C(C)C)s2)cc1` [CBK045528], the figure is 108%; as for `O=S(=O)(Cc1ccccc1)Nc1nnc(C(F)(F)F)s1` [CBK045539], 84.8%.
As for `CC(C)c1nnc(NS(=O)(=O)Cc2ccccc2)s1` [CBK045540], the figure is 93%; as for `COc1ccc(S(=O)(=O)Nc2nnc(C)s2)cc1` [CBK045543], 114%.
As for `Cc1nc(NS(=O)(=O)/C=C/c2ccccc2)sc1C(=O)O` [CBK045553], the figure is 84.7%; as for `Cc1nc(NS(=O)(=O)c2cc(F)c(Br)cc2F)sc1C(=O)O` [CBK045556], 96.5%.
Take `Cc1nc(NS(=O)(=O)c2cccc(Cl)c2C)sc1C(=O)O` [CBK045561]: the viability at 28.5 h, 10 µM was 110%.
In the case of `Cc1ccc(S(=O)(=O)Nc2nc(C)c(C(=O)O)s2)cc1[N+](=O)[O-]` [CBK045565], the viability at 28.5 h, 10 µM turned out to be 91.3%.
As for `O=S(=O)(NCc1cccc(Cl)c1)c1csc2ccnc(N3CCNCC3)c12` [CBK045595C], the figure is 88.6%; as for `COc1ccc(N(C)C(=O)N[C@@H]2CC[C@@]3(c4ccc(OC)c(OC)c4)CCN(C)[C@H]3C2)cc1` [CBK045653T], 112%; as for `OCc1ncccc1OCCOC1CCCCO1` (centres unmarked) [CBK045702], 97.5%.
Then `COc1ccc([C@@]23CC[C@@H](NC(=O)Nc4cccc(Br)n4)C[C@@H]2N(C)CC3)cc1OC` [CBK045703], with 85.4%; and `COc1ccc([C@@]23CC[C@@H](NC(=O)Nc4ccc(Cl)nc4)C[C@@H]2N(C)CC3)cc1OC` [CBK045764], with 91.9%; and `COc1ccc([C@@]23CCC(CC(=O)O)C[C@@H]2N(C)CC3)cc1OC` (some centres unmarked) [CBK045765A], with 107%.
As for `CCCCc1ccc(S(=O)(=O)n2ccc3c(N4CCNCC4)nccc32)cc1` [CBK045805C], the figure is 100%; as for `Cc1ccc(S(=O)(=O)Nc2nc(C)c(C(=O)N3CCN(C)CC3)s2)cc1` [CBK045812], 88.3%; as for `Cc1nc(NS(=O)(=O)c2cc(Cl)sc2Cl)sc1C(=O)N1CCN(C)CC1` [CBK045818], 106%.
Regarding `Oc1cccnc1N1CCNCC1` [CBK045850], the viability at 28.5 h, 10 µM turned out to be 88.8%.
Turning to `Cc1oc(-c2cccc(Cl)c2)cc1C(=O)O` [CBK045856], the viability at 28.5 h, 10 µM was 78%.
For `COc1ccc([C@@]23CC[C@@H](NC(=O)Nc4cc(C)nc(C)c4)C[C@@H]2N(C)CC3)cc1OC` [CBK045876], the viability at 28.5 h, 10 µM came out at 90.9%.
As for `CCCCCCN1CCN(c2nccn(CCOc3cc(F)c(F)cc3F)c2=O)CC1` [CBK045889C], the figure is 113%; as for `CCCC(=O)Nc1ccccc1OC1CCNCC1` [CBK045902T], 98%; as for `COc1cc(F)cc(OC2CCNCC2)c1NC(=O)C1CCC1` [CBK045912T], 92.3%.
As for `Cc1nn(C)c(N2CCNCC2)c1NC(=O)C(C)c1ccccc1` (centres unmarked) [CBK045929T], the figure is 108%; as for `Cc1noc(C)c1NC(=O)N(Cc1ccccc1C(F)(F)F)C1CCC(N)CC1` (centres unmarked) [CBK045963C], 103%; as for `NCc1ccc(CN(Cc2cccc(Cl)c2)C(=O)NC(c2ccccc2)c2ccccc2)cc1` [CBK046087C], 91.6%.
Then `NCc1ccc(CN(Cc2cnc(-c3ccccc3)[nH]2)C(=O)Nc2ccc3c(c2)OCO3)cc1` [CBK046158C], with 89%.
Take `CC(C)(C)c1ccccc1NC(=O)N(CCN)Cc1cc(F)cc(F)c1` [CBK046263C]: the viability at 28.5 h, 10 µM was determined as 98.6%.
Turning to `CC(=O)Nc1c(C#N)cnn1C` [CBK046332], the viability at 28.5 h, 10 µM turned out to be 96%.
As for `COc1ccccc1-c1nc(C2CCCN2C(=O)CCCC(=O)O)n2ccccc12` (centres unmarked) [CBK046600], the viability at 28.5 h, 10 µM was determined as 90.3%.
Then `COc1ccccc1-c1nc(C2CCCN2C(=O)N[C@@H](C)c2ccccc2)n2ccccc12` (some centres unmarked) [CBK046625], with 109%.
As for `CC(CC(=O)O)CC(=O)N1CCCC1c1nc(-c2ccc(F)cc2)c2ccccn12` (centres unmarked) [CBK046626], the figure is 99.4%; as for `O=C(Nc1ccc2c(c1)CCO2)N1CCCC1c1nc(-c2ccccc2)c2ccccn12` (centres unmarked) [CBK046733], 117%.
As for `O=C(O)COCC(=O)N1CCCC(c2nc(-c3ccccc3)c3ccccn23)C1` (centres unmarked) [CBK046806], the figure is 86.1%; as for `Cc1ccc(-c2nc(C3CCN(C(=O)NC(C)C)CC3)n3ccccc23)cc1` [CBK046861], 95%.
On to `O=C(NC(=O)N1CCC2(CC1)NCCc1c2[nH]c2ccc(O)cc12)c1ccccc1` [CBK046936], for which the viability at 28.5 h, 10 µM turned out to be 87.4%.
As for `O=C(O)c1ccccc1C(=O)N1CCC2(CC1)OCCc1c2[nH]c2ccccc12` [CBK046981], the figure is 94.9%.
Consider `O=C(NC(=O)N1CCC2(C1)NCCc1c2[nH]c2ccccc12)c1ccccc1` (centres unmarked) [CBK046985], for which the viability at 28.5 h, 10 µM came out at 94.2%.
For the compound `C/C(C(=O)O)=C(/C)C(=O)N1CCC2(C1)NCCc1c2[nH]c2ccccc12` (centres unmarked) [CBK046995], the viability at 28.5 h, 10 µM was 100%.
Then `COc1ccc2[nH]c3c(c2c1)CCNC31CCN(C(=O)NC(C)(C)C)CC1` [CBK047069], with 97.4%; and `COc1ccc(-c2nc(C3CCN(C(=O)NC(C)(C)C)CC3)n3ccccc23)cc1` [CBK047080], with 97.4%; and `C[C@H](NC(=O)N1CCC(c2nc(-c3ccccc3)c3ccccn23)CC1)c1ccccc1` [CBK047086], with 92.7%.
As for `Cc1ccc(CNC(=O)N2CCC3(CC2)OCCc2c3[nH]c3ccccc23)cc1` [CBK047121], the figure is 93.3%; as for `COc1ccccc1-c1nc(C2CCCN(C(=O)NCCc3cccs3)C2)n2ccccc12` (centres unmarked) [CBK047163], 95.5%; as for `Cc1ccc2[nH]c3c(c2c1)CCNC31CCN(C(=O)CC(C)CC(=O)O)CC1` (centres unmarked) [CBK047196], 109%.
Then `COc1ccc2[nH]c3c(c2c1)CCOC31CCN(C(=O)CC(C)CC(=O)O)CC1` (centres unmarked) [CBK047197], with 100%; and `COc1ccc2c(c1)CC(=O)NC21CCN(C(=O)CCCC(=O)O)CC1` [CBK047208], with 90.3%; and `O=C1Cc2cc3ccccc3cc2C2(CCN(C(=O)c3ccccc3C(=O)O)CC2)N1` [CBK047216], with 94.8%.
In the case of `Cc1ccc2[nH]c3c(c2c1)CCNC31CCN(C(=O)[C@@H]2CCCC[C@@H]2C(=O)O)CC1` [CBK047222], the viability at 28.5 h, 10 µM was 89.9%.
Then `O=C(Nc1cccc(Cl)c1)N1CCCC(c2nc(-c3ccccc3)c3ccccn23)C1` (centres unmarked) [CBK047233], with 90.4%.
Then `O=C(O)c1ccccc1C(=O)N1CCC2(CC1)NCCc1c2[nH]c2ccccc12` [CBK047235], with 83.9%; and `Cc1ccc(-c2nc(C3CCCN(C(=O)NC4CCCCC4)C3)n3ccccc23)cc1` (centres unmarked) [CBK047241], with 94.4%; and `COc1ccc2c(c1)CC(=O)NC21CCN(C(=O)NC(C)C)CC1` [CBK047261], with 95.7%.
Then `COc1cc2c(cc1OC)C1(CCN(C(=O)Nc3ccc(F)cc3F)CC1)NC(=O)C2` [CBK047264], with 84.8%.
Consider `COc1cc2c(c(OC)c1OC)CC(=O)NC21CCN(C(=O)CC(C)CC(=O)O)CC1` (centres unmarked) [CBK047265], for which the viability at 28.5 h, 10 µM is 94.8%.
Regarding `CC(NC(=O)N1CCC2(CC1)NC(=O)Cc1ccccc12)c1cccc2ccccc12` (centres unmarked) [CBK047280], the viability at 28.5 h, 10 µM came to 84%.
As for `COc1ccccc1NC(=O)N1CCC2(CC1)NC(=O)Cc1cc3ccccc3cc12` [CBK047284], the figure is 92.1%.
Consider `O=C1Cc2ccccc2C2(CCN(C(=O)NCc3cccc(F)c3)CC2)N1` [CBK047288], for which the viability at 28.5 h, 10 µM was determined as 81%.
Then `COc1cc2c(c(OC)c1OC)CC(=O)NC21CCN(C(=O)NC(C)(C)C)CC1` [CBK047301], with 94.2%; and `CCOC(=O)c1[nH]c2ccccc2c1NS(=O)(=O)c1ccc(Br)cc1` [CBK047409], with 116%.
Consider `CCOC(=O)c1[nH]c2ccccc2c1NS(=O)(=O)Cc1ccccc1[N+](=O)[O-]` [CBK047426], for which the viability at 28.5 h, 10 µM is 94.7%.
Then `CNC(=O)c1cc(-c2cccc(C)c2)oc1C` [CBK047432], with 80.3%.
`CCOC(=O)c1sc(NS(=O)(=O)Cc2ccccc2)nc1C` [CBK047448]: the viability at 28.5 h, 10 µM is 105%.
As for `CN1CCN(CC(=O)Nc2cc(N3CCOCC3)ccc2[N+](=O)[O-])CC1` [CBK047475], the figure is 92.9%; as for `Cc1oc(-c2ccccc2)nc1C(=O)O` [CBK047490], 98.4%.
Then `CCOC(=O)c1ccccc1NC(=O)N[C@@H]1CC[C@@]2(c3ccc(OC)c(OC)c3)CCN(C)[C@H]2C1` [CBK047494T], with 94.9%; and `C[C@H]1CNCCN1c1nccnc1Cl` [CBK047524F], with 88%.
